From PubChem BioAssay (NCI)
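Where inhibition never reached the appropriate level, the endpoint shown equals the highest concentration tested. Otherwise, values were interpolated linearly from a five-concentration, 48-hour dose response in 96-well plates. TGI denotes the concentration required for complete inhibition of growth.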

Assays:
Assay in all cases: inhibition of tumour cell growth, NCI panel, 48 h
M14 melanoma = tested on: M14 melanoma
IGROV1 ovarian = tested on: IGROV1 ovarian
DMS 114 small cell lung = tested on: DMS 114 small cell lung
SK-OV-3 ovarian = tested on: SK-OV-3 ovarian
786-0 renal = tested on: 786-0 renal
OVCAR-3 ovarian = tested on: OVCAR-3 ovarian
EKVX NSCLC = tested on: EKVX NSCLC
MALME-3M melanoma = tested on: MALME-3M melanoma
NCI-H23 lung = tested on: NCI-H23 lung
CAKI-1 renal = tested on: CAKI-1 renal
KM20L2 colon = tested on: KM20L2 colon
K-562 leukemia = tested on: K-562 leukemia
SNB-78 CNS = tested on: SNB-78 CNS
U251 CNS = tested on: U251 CNS
MOLT-4 leukemia = tested on: MOLT-4 leukemia
SW-620 colon = tested on: SW-620 colon
SNB-75 CNS = tested on: SNB-75 CNS
SK-MEL-5 melanoma = tested on: SK-MEL-5 melanoma
A549 NSCLC = tested on: A549 NSCLC
HCT-116 colon = tested on: HCT-116 colon
NCI-H226 lung = tested on: NCI-H226 lung
OVCAR-4 ovarian = tested on: OVCAR-4 ovarian
ACHN renal = tested on: ACHN renal
SF-268 CNS = tested on: SF-268 CNS
HCT-15 colon = tested on: HCT-15 colon
HOP-92 NSCLC = tested on: HOP-92 NSCLC
SK-MEL-2 melanoma = tested on: SK-MEL-2 melanoma
HL-60(TB) leukemia = tested on: HL-60(TB) leukemia
SNB-19 CNS = tested on: SNB-19 CNS
TK-10 renal = tested on: TK-10 renal
LXFL 529 NSCLC = tested on: LXFL 529 NSCLC
HOP-62 NSCLC = tested on: HOP-62 NSCLC
KM12 colon = tested on: KM12 colon
LOX IMVI melanoma = tested on: LOX IMVI melanoma
HCC-2998 colon = tested on: HCC-2998 colon
OVCAR-5 ovarian = tested on: OVCAR-5 ovarian
UACC-62 melanoma = tested on: UACC-62 melanoma
SN12C renal = tested on: SN12C renal
RXF 393 renal = tested on: RXF 393 renal
UO-31 renal = tested on: UO-31 renal
UACC-257 melanoma = tested on: UACC-257 melanoma
OVCAR-8 ovarian = tested on: OVCAR-8 ovarian
MDA-MB-231 breast = tested on: MDA-MB-231 breast
PC-3 prostate = tested on: PC-3 prostate
HS 578T breast = tested on: HS 578T breast
BT-549 breast = tested on: BT-549 breast
A498 renal = tested on: A498 renal
SF-539 CNS = tested on: SF-539 CNS
NCI-H460 lung = tested on: NCI-H460 lung
SR leukemia = tested on: SR leukemia
T-47D breast = tested on: T-47D breast
NCI-H522 lung = tested on: NCI-H522 lung
SF-295 CNS = tested on: SF-295 CNS
NCI/ADR-RES ovarian = tested on: NCI/ADR-RES ovarian
RPMI-8226 leukemia = tested on: RPMI-8226 leukemia
MDA-N = tested on: MDA-N
HT29 colon = tested on: HT29 colon
MDA-MB-435 = tested on: MDA-MB-435
SK-MEL-28 melanoma = tested on: SK-MEL-28 melanoma
DU-145 prostate = tested on: DU-145 prostate
MCF7 breast = tested on: MCF7 breast
COLO 205 colon = tested on: COLO 205 colon

Work on `Cc1ccccc1C(=O)C1CCCCC1O` (stereo not given) yielded a TGI (M14 melanoma) of over 100 µM, a TGI (IGROV1 ovarian) of over 100 µM and a TGI (DMS 114 small cell lung) of over 100 µM. For the same compound, the TGI (SK-OV-3 ovarian) was over 100 µM, the TGI (786-0 renal) was over 100 µM and the TGI (OVCAR-3 ovarian) was over 100 µM. For the same compound, the TGI (EKVX NSCLC) was over 100 µM, the TGI (MALME-3M melanoma) was over 100 µM and the TGI (NCI-H23 lung) was over 100 µM. The TGI (CAKI-1 renal) was over 100 µM, the TGI (KM20L2 colon) was over 100 µM and the TGI (K-562 leukemia) was over 100 µM. It also gave a TGI (SNB-78 CNS) of over 100 µM, a TGI (U251 CNS) of over 100 µM and a TGI (MOLT-4 leukemia) of over 100 µM. The TGI (SW-620 colon) was over 100 µM, the TGI (SNB-75 CNS) was over 100 µM and the TGI (SK-MEL-5 melanoma) was over 100 µM. It also gave a TGI (A549 NSCLC) of over 100 µM, a TGI (HCT-116 colon) of over 100 µM and a TGI (NCI-H226 lung) of over 100 µM. For the same compound, the TGI (OVCAR-4 ovarian) was over 100 µM, the TGI (ACHN renal) was over 100 µM and the TGI (SF-268 CNS) was over 100 µM. For the same compound, the TGI (HCT-15 colon) was over 100 µM, the TGI (HOP-92 NSCLC) was over 100 µM and the TGI (SK-MEL-2 melanoma) was over 100 µM. For the same compound, the TGI (HL-60(TB) leukemia) was over 100 µM, the TGI (SNB-19 CNS) was over 100 µM and the TGI (TK-10 renal) was over 100 µM. For the same compound, the TGI (LXFL 529 NSCLC) was over 100 µM, the TGI (HOP-62 NSCLC) was over 100 µM and the TGI (KM12 colon) was over 100 µM. For the same compound, the TGI (LOX IMVI melanoma) was over 100 µM, the TGI (HCC-2998 colon) was over 100 µM and the TGI (OVCAR-5 ovarian) was over 100 µM. The TGI (UACC-62 melanoma) was over 100 µM, the TGI (SN12C renal) was over 100 µM and the TGI (RXF 393 renal) was over 100 µM. The TGI (UO-31 renal) was over 100 µM.

`OC(c1cccnc1Cl)c1nc2ccccc2c2ccnc(Cl)c12` (stereo not given) gave a TGI (UACC-257 melanoma) of over 100 µM, a TGI (OVCAR-8 ovarian) of over 100 µM and a TGI (MDA-MB-231 breast) of over 100 µM. The TGI (M14 melanoma) was over 100 µM, the TGI (IGROV1 ovarian) was over 100 µM and the TGI (PC-3 prostate) was 69.1 µM. For the same compound, the TGI (HS 578T breast) was 9.4 µM, the TGI (BT-549 breast) was over 100 µM and the TGI (SK-OV-3 ovarian) was 63.4 µM. It also gave a TGI (OVCAR-3 ovarian) of over 100 µM, a TGI (EKVX NSCLC) of over 100 µM and a TGI (MALME-3M melanoma) of 78.2 µM. For the same compound, the TGI (NCI-H23 lung) was over 100 µM, the TGI (CAKI-1 renal) was over 100 µM and the TGI (K-562 leukemia) was over 100 µM. For the same compound, the TGI (A498 renal) was 17.5 µM, the TGI (U251 CNS) was over 100 µM and the TGI (MOLT-4 leukemia) was over 100 µM. It also gave a TGI (SW-620 colon) of over 100 µM, a TGI (SF-539 CNS) of 12.4 µM and a TGI (NCI-H460 lung) of over 100 µM. For the same compound, the TGI (SR leukemia) was 17.7 µM, the TGI (SNB-75 CNS) was over 100 µM and the TGI (T-47D breast) was over 100 µM. It also gave a TGI (SK-MEL-5 melanoma) of over 100 µM, a TGI (NCI-H522 lung) of 5.92 µM and a TGI (A549 NSCLC) of over 100 µM. For the same compound, the TGI (HCT-116 colon) was over 100 µM, the TGI (SF-295 CNS) was 9.75 µM and the TGI (OVCAR-4 ovarian) was over 100 µM. For the same compound, the TGI (ACHN renal) was over 100 µM, the TGI (SF-268 CNS) was over 100 µM and the TGI (HCT-15 colon) was over 100 µM. For the same compound, the TGI (HOP-92 NSCLC) was over 100 µM, the TGI (SK-MEL-2 melanoma) was over 100 µM and the TGI (HL-60(TB) leukemia) was 12.5 µM. For the same compound, the TGI (SNB-19 CNS) was over 100 µM, the TGI (TK-10 renal) was over 100 µM and the TGI (NCI/ADR-RES ovarian) was over 100 µM. It also gave a TGI (HOP-62 NSCLC) of 15.3 µM, a TGI (KM12 colon) of over 100 µM and a TGI (RPMI-8226 leukemia) of 8.57 µM. For the same compound, the TGI (MDA-N) was 4.49 µM, the TGI (LOX IMVI melanoma) was over 100 µM and the TGI (HT29 colon) was over 100 µM. It also gave a TGI (OVCAR-5 ovarian) of over 100 µM, a TGI (UACC-62 melanoma) of 23.7 µM and a TGI (MDA-MB-435) of 4.89 µM. The TGI (SN12C renal) was 45.8 µM, the TGI (SK-MEL-28 melanoma) was over 100 µM and the TGI (DU-145 prostate) was over 100 µM. For the same compound, the TGI (MCF7 breast) was over 100 µM, the TGI (COLO 205 colon) was over 100 µM and the TGI (RXF 393 renal) was 35.4 µM. For the same compound, the TGI (UO-31 renal) was over 100 µM.
